Like-named read-outs stand apart in the source and are kept apart here.
Experiments:
[1] = system: IL-13-stimulated STAT6 phosphorylation in human lung bronchial epithelial BEAS-2B cell line; assay: P-STAT6 BEAS-2B + IL-13 cell assay; assay type: cell-based; settings: BEAS2B cells, IL13 stimulation, read-out: Cellular JAK1 PSTAT6 BEAS2B + IL13
Outline: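 BEAS-2B cells grown 48 h at 37 °C, pre-treated 1 h with compound (10-point 1:2 dilution curve), then stimulated 15 min with human recombinant IL-13 (250 ng/mL stock). Lysate P-STAT6 (Tyr641) read by MSD sandwich ELISA with total-STAT6 capture; IC50 from four-parameter logistic fit of control-normalised data.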

[2] = biological target: T1, recombinant human JAK1 kinase domain protein (Residues 854-1154) (Homo sapiens, UniProt P23458); assay: JAK1 biochemical assay (LabChip mobility shift, Ki); settings: read-out: Biochem JAK1 Ki
T1 construct: human JAK1 kinase domain protein (Residues 854-1154); purchased Proteros Biostructures GmbH (Martinsried, Germany); host or cells: insect cells

[3] = biological target: Recombinant human JAK2 kinase domain protein (Residues 812-1132) (Homo sapiens, UniProt O60674); assay: JAK2 biochemical assay (LabChip mobility shift, Ki)
Sequence of Recombinant human JAK2 kinase domain protein (Residues 812-1132) (O60674 812-1132): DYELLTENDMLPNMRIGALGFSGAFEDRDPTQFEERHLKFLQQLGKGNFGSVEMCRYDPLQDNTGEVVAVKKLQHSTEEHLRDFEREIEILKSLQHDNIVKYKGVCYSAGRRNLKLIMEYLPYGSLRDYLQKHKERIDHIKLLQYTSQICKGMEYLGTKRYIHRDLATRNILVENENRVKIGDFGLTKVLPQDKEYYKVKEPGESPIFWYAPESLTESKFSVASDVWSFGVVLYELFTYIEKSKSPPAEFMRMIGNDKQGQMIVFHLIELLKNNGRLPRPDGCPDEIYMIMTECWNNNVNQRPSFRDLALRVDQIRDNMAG

T1 sequence (P23458 854-1154): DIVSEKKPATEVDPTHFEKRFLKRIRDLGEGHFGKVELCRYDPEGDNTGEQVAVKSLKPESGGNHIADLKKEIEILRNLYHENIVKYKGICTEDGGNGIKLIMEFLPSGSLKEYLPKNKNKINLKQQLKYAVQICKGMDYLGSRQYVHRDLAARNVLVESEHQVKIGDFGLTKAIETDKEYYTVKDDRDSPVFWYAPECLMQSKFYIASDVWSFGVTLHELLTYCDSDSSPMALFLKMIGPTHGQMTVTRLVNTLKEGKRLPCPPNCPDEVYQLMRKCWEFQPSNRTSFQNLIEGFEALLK

| Structure (SMILES) | Ki [2] [pM] | Ki ([3]; Biochem JAK2 Ki) [pM] | Ki ([3]; read-out: Biochem JAK2 Ki) [pM] | IC50 [1] [pM] | IC50 ([1]; Homo sapiens, BEAS-2B) [pM] |
| --- | --- | --- | --- | --- | --- |
| CN1CCCC(O)(Cn2cc(Oc3ccc(OC(F)F)c(-c4nn(C)cc4NC(=O)c4cnn5cccnc45)c3)cn2)CC1 (stereo not drawn) [Example 197, N-[3-[2-(difluoromethoxy)-5-[1-[(4-hydroxy-l-methyl-azepan-4-yl)methyl]pyrazol-4-yl]oxy-phenyl]-1-methyl-pyrazol-4-yl]pyrazolo[1,5-a]pyrimidine-3-carboxamide] | 810 | 510 |  | 130000 |  |
| Cn1cc(NC(=O)c2cnn3cccnc23)c(-c2cc(Oc3cnn(C4CNC4)c3)ccc2OC(F)F)n1 [Example 116, N-[3-[5-[l-(azetidin-3-yl)pyrazol-4-yl]oxy-2-(difluoromethoxy)phenyl]-1-methyl-pyrazol-4-yl]pyrazolo[1,5-a]pyrimidine-3-carboxamide] | 1500 | 840 |  |  | 95000 |
| Cn1cc(NC(=O)c2cnn3cccnc23)c(-c2cc(Oc3cnn(CCN)c3)ccc2OC(F)F)n1 [Example 126, N-[3-[5-[1-(2-aminoethyl)pyrazol-4-yl]oxy-2-(difluoromethoxy)phenyl]-1-methyl-pyrazol-4-yl]pyrazolo[1,5-a]pyrimidine-3-carboxamide] | 1100 | 910 |  |  | 67000 |
| O=C(Nc1c[nH]nc1-c1cc(Oc2ccc3c(c2)CNCC3)ccc1OC(F)F)c1cnn2cccnc12 [Example 18, N-[3-[2-(difluoromethoxy)-5-(1,2,3,4-tetrahydroisoquinolin-7-yloxy)phenyl]-1H-pyrazol-4-yl]pyrazolo[1,5-a]pyrimidine-3-carboxamide] | 170 | 170 |  |  | 32000 |
| Cn1cc(NC(=O)c2cnn3cccnc23)c(-c2cc(Oc3cccc(CN)c3)ccc2OC(F)F)n1 [Example 13, N-[3-[5-[3-(aminomethyl)phenoxy]-2-(difluoromethoxy)phenyl]-1-methyl-pyrazol-4-yl]pyrazolo[1,5-a]pyrimidine-3-carboxamide] | 210 | 430 |  |  | 13000 |
| CN1CC(O)(c2cccc(Oc3ccc(OC(F)F)c(-c4n[nH]cc4NC(=O)c4cnn5cccnc45)c3)c2)C1 [Example 138, N-[3-[2-(difluoromethoxy)-5-[3-(3-hydroxy-l-methyl-azetidin-3-yl)phenoxy]phenyl]-1H-pyrazol-4-yl]pyrazolo[1,5-a]pyrimidine-3-carboxamide] | 550 |  | 400 | 150000 |  |
| Cn1cc(NC(=O)c2cnn3cccnc23)c(-c2cc(Oc3cnn(CC4CNC4)c3)ccc2OC(F)F)n1 [Example 123, N-[3-[5-[1-(azetidin-3-ylmethyl)pyrazol-4-yl]oxy-2-(difluoromethoxy)phenyl]-1-methyl-pyrazol-4-yl]pyrazolo[1,5-a]pyrimidine-3-carboxamide] | 610 | 740 |  |  | 370000 |

More lines, main results first:

| Ki [2] [pM] | Ki ([3]; Biochem JAK2 Ki) [pM] | Ki ([3]; read-out: Biochem JAK2 Ki) [pM] | Structure (SMILES) | IC50 [1] [pM] | IC50 ([1]; Homo sapiens, BEAS-2B) [pM] |
| --- | --- | --- | --- | --- | --- |
| 370 | 390 |  | Cn1cc(NC(=O)c2cnn3cccnc23)c(-c2cc(Oc3cccc([C@H]4CNCCO4)c3)ccc2OC(F)F)n1 (racemic) [Example 42, N-[3-[2-(difluoromethoxy)-5-[3-[rac-(2S)-morpholin-2-yl]phenoxy]phenyl]-1-methyl-pyrazol-4-yl]pyrazolo[1,5-a]pyrimidine-3-carboxamide] |  | 11000 |
| 1300 | 530 |  | Cn1cc(NC(=O)c2cnn3cccnc23)c(-c2cc(Oc3ccc4c(c3)CN(C3COC3)CC4)ccc2OC(F)F)n1 [Example 69, N-[3-[2-(difluoromethoxy)-5-[[2-(oxetan-3-yl)-3,4-dihydro-1H-isoquinolin-7-yl]oxy]phenyl]-1-methyl-pyrazol-4-yl]pyrazolo[1,5-a]pyrimidine-3-carboxamide] |  | 37000 |
| 470 | 480 |  | Cn1cc(NC(=O)c2cnn3cccnc23)c(-c2cc(Oc3cccc(C(=O)N4CCC(N5CCOCC5)CC4)c3)ccc2OC(F)F)n1 [Example 81, N-[3-[2-(difluoromethoxy)-5-[3-(4-morpholinopiperidine-1-carbonyl)phenoxy]phenyl]-1-methyl-pyrazol-4-yl]pyrazolo[1,5-a]pyrimidine-3-carboxamide] |  | 26000 |
